Experimental data published in patent US11939314B2, “Quinolin-2-one derivatives” (MERCK PATENT GMBH, priority 2016, dated 2024).
Where a name gives a salt, the structure may show the parent alone.

Assays:
c-Kit(V654A) = target: T1, c-Kit(V654A) (Homo sapiens, UniProt P10721, V654A); experiment: c-Kit(V654A) assay; type: biochemical; details: recombinant human c-Kit aa 544-end, 200 μM ATP, 1.4E-06 means 1.4×10^−6, read-out: Inhibition (IC50) of c-KIT (V654A)
T1 construct: amino acids 544-end containing the V654A mutation; GST (N)
T1 sequence (P10721 544-976 V654A): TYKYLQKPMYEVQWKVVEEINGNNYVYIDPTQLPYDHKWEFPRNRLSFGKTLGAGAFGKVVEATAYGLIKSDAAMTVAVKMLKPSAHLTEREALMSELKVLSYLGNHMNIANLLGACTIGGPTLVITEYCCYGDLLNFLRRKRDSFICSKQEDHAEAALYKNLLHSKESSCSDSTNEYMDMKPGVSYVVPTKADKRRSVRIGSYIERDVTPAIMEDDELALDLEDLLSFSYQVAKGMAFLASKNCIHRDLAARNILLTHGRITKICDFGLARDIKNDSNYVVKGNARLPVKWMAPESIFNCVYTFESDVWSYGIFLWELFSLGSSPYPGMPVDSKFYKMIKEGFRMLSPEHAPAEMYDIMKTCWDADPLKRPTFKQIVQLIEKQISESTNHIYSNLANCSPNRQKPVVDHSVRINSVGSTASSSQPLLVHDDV
Summary of the method: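 Radiometric filter-binding read-out: substrate 33P incorporation counted by scintillation after P30 filtermat washes in 75 mM phosphoric acid and methanol. Enzyme: N-GST recombinant human c-Kit aa 544-end carrying V654A.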

PDGFRalpha(V561D) = target: T2, PDGFRalpha(V561D) (Homo sapiens, UniProt P16234, V561D); experiment: PDGFRalpha(V561D) assay; type: biochemical; details: recombinant human PDGFRalpha aa 550-end, 200 μM ATP, 1.4E-06 means 1.4×10^−6, read-out: Inhibition (IC50) of PDGFRα (V561D)
T2 construct: recombinant human PDGFRalpha, amino acids 550end containing the V561 D mutation; 6His (N)
T2 sequence (P16234 550-1089 V561D): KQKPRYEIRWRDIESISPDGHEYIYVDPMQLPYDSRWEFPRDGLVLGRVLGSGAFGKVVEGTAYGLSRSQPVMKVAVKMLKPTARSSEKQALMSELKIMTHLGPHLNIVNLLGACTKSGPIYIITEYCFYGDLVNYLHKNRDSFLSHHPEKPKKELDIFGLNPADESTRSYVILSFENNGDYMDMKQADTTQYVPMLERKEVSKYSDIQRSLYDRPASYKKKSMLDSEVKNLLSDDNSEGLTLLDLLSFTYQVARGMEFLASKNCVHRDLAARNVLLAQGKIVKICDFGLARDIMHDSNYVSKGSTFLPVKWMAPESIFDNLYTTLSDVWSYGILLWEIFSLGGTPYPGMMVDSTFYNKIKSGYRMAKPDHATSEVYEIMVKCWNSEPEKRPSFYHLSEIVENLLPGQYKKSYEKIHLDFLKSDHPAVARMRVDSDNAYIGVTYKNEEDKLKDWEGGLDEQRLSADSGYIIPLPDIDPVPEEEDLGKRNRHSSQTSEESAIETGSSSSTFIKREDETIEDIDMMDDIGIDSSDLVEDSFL
Summary of the method: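 Radiometric filter-binding assay: substrate phosphorylation by recombinant N-His-tagged human PDGFRα 550-end V561D was quenched with 3% phosphoric acid after 40 min at room temperature, then counted.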

Row | SMILES | IC50 (c-Kit(V654A)) [nM] | IC50 (PDGFRalpha(V561D)) [nM]
1 | N[C@@H]1CCN(C(=O)c2ccc(-n3cc(-c4cc5cc(F)ccc5[nH]c4=O)nn3)cc2)C1 [A313, 3-{1-[4-((R)-3-amino-pyrrolidine-1-carbonyl)-phenyl]-1H-[1,2,3]triazol-4-yl}-6-fluoro-1H-quinolin-2-one hydrochloride] | 26 | 330
2 | O=C(c1ccc(-n2cc(-c3cc4cc(F)ccc4[nH]c3=O)nn2)cc1)N1CCN[C@@H](CO)C1 [A314, 6-fluoro-3-{1-[4-((R)-3-hydroxymethyl-piperazine-1-carbonyl)-phenyl]-1H-[1,2,3]triazol-4-yl}-1H-quinolin-2-one hydrochloride] | 72 | 180
3 | O=C(c1ccc(-n2cc(-c3cc4cc(F)ccc4[nH]c3=O)nn2)cc1)N1CCNC[C@H]1CO [A315, 6-fluoro-3-{1-[4-((S)-2-hydroxymethyl-piperazine-1-carbonyl)-phenyl]-1H-[1,2,3]triazol-4-yl}-1H-quinolin-2-one] | 200 | 1400
4 | O=C(c1ccc(-n2cc(-c3cc4cc(F)ccc4[nH]c3=O)nn2)cc1)N1CCNC[C@@H]1CO [A316, 6-fluoro-3-{1-[4-((R)-2-hydroxymethyl-piperazine-1-carbonyl)-phenyl]-1H-[1,2,3]triazol-4-yl}-1H-quinolin-2-one] | 120 | 520
5 | N[C@@H]1[C@H]2CN(C(=O)c3ccc(-n4cc(-c5cc6cc(F)ccc6[nH]c5=O)nn4)cc3)C[C@@H]12 [A317, 3-{1-[4-(6-amino-3-aza-bicyclo[3.1.0]hexane-3-carbonyl)-phenyl]-1H-[1,2,3]triazol-4-yl}-6-fluoro-1H-quinolin-2-one] | 120 | 1400
6 | CN(C)C[C@@H]1CCCN1C(=O)c1ccc(-n2cc(-c3cc4cc(Cl)ccc4[nH]c3=O)nn2)cc1 [A318, 6-chloro-3-{1-[4-((S)-2-dimethylaminomethyl-pyrrolidine-1-carbonyl)-phenyl]-1H-[1,2,3]triazol-4-yl}-1H-quinolin-2-one] | 20 | 17
7 | CN(C)C[C@H]1CCCN1C(=O)c1ccc(-n2cc(-c3cc4cc(Cl)ccc4[nH]c3=O)nn2)cc1 [A322, 6-chloro-3-{1-[4-((R)-2-dimethylaminomethyl-pyrrolidine-1-carbonyl)-phenyl]-1H-[1,2,3]triazol-4-yl}-1H-quinolin-2-one] | 25 | 65
8 | CN(C)C[C@@H]1CCCN1C(=O)c1ccc(-n2cc(-c3cc4cc(F)ccc4[nH]c3=O)cn2)cc1 [A324, 3-{1-[4-((S)-2-dimethylaminomethyl-pyrrolidine-1-carbonyl)-phenyl]-1H-pyrazol-4-yl}-6-fluoro-1H-quinolin-2-one] | 270 | 7.2
9 | CN(C)C[C@H]1CCCN1C(=O)c1ccc(-n2cc(-c3cc4cc(F)ccc4[nH]c3=O)cn2)cc1 [A325, 3-{1-[4-((R)-2-dimethylaminomethyl-pyrrolidine-1-carbonyl)-phenyl]-1H-pyrazol-4-yl}-6-fluoro-1H-quinolin-2-one] | 17 | 3.8
10 | CN1C[C@@H]2CN(C(=O)c3ccc(-n4cc(-c5cc6cc(F)ccc6[nH]c5=O)nn4)cc3)C[C@@H]2C1 [A327, 6-fluoro-3-{1-[4-((cis)-5-methyl-hexahydro-pyrrolo[3,4-c]pyrrole-2-carbonyl)-phenyl]-1H-[1,2,3]triazol-4-yl}-1H-quinolin-2-one] | 14 | 220
11 | CN(C)[C@H]1[C@@H]2CN(C(=O)c3ccc(-n4cc(-c5cc6cc(F)ccc6[nH]c5=O)nn4)cc3)C[C@@H]21 [A330, 3-{1-[4-(6-dimethylamino-3-aza-bicyclo[3.1.0]hexane-3-carbonyl)-phenyl]-1H-[1,2,3]triazol-4-yl}-6-fluoro-1H-quinolin-2-one] | 48 | 21
12 | CNc1ccc(-n2cc(-c3cc4cc(F)ccc4[nH]c3=O)nn2)cc1 [A342, 6-fluoro-3-[1-(4-methylamino-phenyl)-1H-[1,2,3]triazol-4-yl]-1H-quinolin-2-one] | 25 | 36
13 | CN(C(=O)[C@H]1CCCO1)c1ccc(-n2cc(-c3cc4cc(F)ccc4[nH]c3=O)nn2)cc1 [A343, (R)-tetrahydro-furan-2-carboxylic acid {4-[4-(6-fluoro-2-oxo-1,2-dihydro-quinolin-3-yl)-[1,2,3]triazol-1-yl]-phenyl}-methyl-amide] | 9 | 85

Next, values leading:

Row | IC50 (c-Kit(V654A)) [nM] | IC50 (PDGFRalpha(V561D)) [nM] | SMILES
14 | 27 | 36 | CN(C)C[C@@H]1CCCN1C(=O)c1ccc(-n2cc(-c3cc4cc(F)ccc4[nH]c3=O)nn2)cc1 [A319, 3-{1-[4-((S)-2-dimethylaminomethyl-pyrrolidine-1-carbonyl)-phenyl]-1H-[1,2,3]triazol-4-yl}-6-fluoro-1H-quinolin-2-one]
15 | 48 | 99 | CN(C)C[C@H]1CCCN1C(=O)c1ccc(-n2cc(-c3cc4cc(F)c(F)cc4[nH]c3=O)nn2)cc1 [A320, 3-{1-[4-((R)-2-dimethylaminomethyl-pyrrolidine-1-carbonyl)-phenyl]-1H-[1,2,3]triazol-4-yl}-6,7-difluoro-1H-quinolin-2-one]
16 | 44 | 370 | CN(C)C[C@H]1CCCN1C(=O)c1ccc(-n2cc(-c3cc4cc(F)ccc4[nH]c3=O)nn2)cc1 [A321, 3-{1-[4-((R)-2-dimethylaminomethyl-pyrrolidine-1-carbonyl)-phenyl]-1H-[1,2,3]triazol-4-yl}-6-fluoro-1H-quinolin-2-one]
17 | 220 | 220 | CN(C)C[C@@H]1CCCN1C(=O)c1ccc(-n2cc(-c3cc4cc(F)c(F)cc4[nH]c3=O)nn2)cc1 [A323, 3-{1-[4-((S)-2-dimethylaminomethyl-pyrrolidine-1-carbonyl)-phenyl]-1H-[1,2,3]triazol-4-yl}-6,7-difluoro-1H-quinolin-2-one]
18 | 180 | 940 | CN(C)C[C@@H]1CCN(C(=O)c2ccc(-n3cc(-c4cc5cc(F)ccc5[nH]c4=O)nn3)cc2)C1 [A326, 3-{1-[4-((S)-3-dimethylaminomethyl-pyrrolidine-1-carbonyl)-phenyl]-1H-[1,2,3]triazol-4-yl}-6-fluoro-1H-quinolin-2-one]
19 | 40 | 97 | CN(C)[C@@H]1CCCN(C(=O)c2ccc(-n3cc(-c4cc5cc(F)c(F)cc5[nH]c4=O)nn3)cc2)C1 [A328, 3-{1-[4-((R)-3-dimethylamino-piperidine-1-carbonyl)-phenyl]-1H-[1,2,3]triazol-4-yl}-6,7-difluoro-1H-quinolin-2-one]
20 | 73 | 92 | CN(C)[C@H]1CCCN(C(=O)c2ccc(-n3cc(-c4cc5cc(F)c(F)cc5[nH]c4=O)nn3)cc2)C1 [A329, 3-{1-[4-((S)-3-dimethylamino-piperidine-1-carbonyl)-phenyl]-1H-[1,2,3]triazol-4-yl}-6,7-difluoro-1H-quinolin-2-one]
21 | 63 | 570 | CN(C)[C@@H]1CCCN(C(=O)c2ccc(-n3cc(-c4cc5cc(F)ccc5[nH]c4=O)nn3)cc2)C1 [A331, 3-{1-[4-((R)-3-dimethylamino-piperidine-1-carbonyl)-phenyl]-1H-[1,2,3]triazol-4-yl}-6-fluoro-1H-quinolin-2-one]
22 | 71 | 100 | CN(C)[C@H]1CCCN(C(=O)c2ccc(-n3cc(-c4cc5cc(F)ccc5[nH]c4=O)nn3)cc2)C1 [A332, 3-{1-[4-((S)-3-dimethylamino-piperidine-1-carbonyl)-phenyl]-1H-[1,2,3]triazol-4-yl}-6-fluoro-1H-quinolin-2-one]
23 | 63 | 120 | CN(C)[C@@H]1CCCN(C(=O)c2ccc(-n3cc(-c4cc5ccc(F)cc5[nH]c4=O)nn3)cc2)C1 [A333, 3-{1-[4-((R)-3-dimethylamino-piperidine-1-carbonyl)-phenyl]-1H-[1,2,3]triazol-4-yl}-7-fluoro-1H-quinolin-2-one]
24 | 15 | 41 | CN(C)C[C@H]1CCN(C(=O)c2ccc(-n3cc(-c4cc5cc(F)ccc5[nH]c4=O)nn3)cc2)C1 [A334, 3-{1-[4-((R)-3-dimethylaminomethyl-pyrrolidine-1-carbonyl)-phenyl]-1H-[1,2,3]triazol-4-yl}-6-fluoro-1H-quinolin-2-one]
25 | 170 | 680 | CN(C)C[C@H]1CCN(C(=O)c2ccc(-n3cc(-c4cc5cc(F)c(F)cc5[nH]c4=O)nn3)cc2)C1 [A335, 3-{1-[4-((R)-3-dimethylaminomethyl-pyrrolidine-1-carbonyl)-phenyl]-1H-[1,2,3]triazol-4-yl}-6,7-difluoro-1H-quinolin-2-one]
26 | 180 | 240 | CN(C)[C@H]1CCCN(C(=O)c2ccc(-n3cc(-c4cc5ccc(F)cc5[nH]c4=O)nn3)cc2)C1 [A336, 3-{1-[4-((S)-3-dimethylamino-piperidine-1-carbonyl)-phenyl]-1H-[1,2,3]triazol-4-yl}-7-fluoro-1H-quinolin-2-one]
27 | 75 | 230 | CCN(CC)[C@H]1CCCN(C(=O)c2ccc(-n3cc(-c4cc5cc(F)ccc5[nH]c4=O)nn3)cc2)C1 [A337, 3-{1-[4-((S)-3-diethylamino-piperidine-1-carbonyl)-phenyl]-1H-[1,2,3]triazol-4-yl}-6-fluoro-1H-quinolin-2-one]
28 | 39 | 160 | CCN(CC)[C@@H]1CCCN(C(=O)c2ccc(-n3cc(-c4cc5cc(F)ccc5[nH]c4=O)nn3)cc2)C1 [A338, 3-{1-[4-((R)-3-diethylamino-piperidine-1-carbonyl)-phenyl]-1H-[1,2,3]triazol-4-yl}-6-fluoro-1H-quinolin-2-one]
